Laboratory results from the kinase profiling compilation of Christmann-Franck et al. (2016).

Experiments:
Test in all cases: radiometric filter-binding kinase assay
[1] = system: AKT1 (human), P31749 [S473D]
DYRK2 (human) = DYRK2 (human) (UniProt Q92630)
EEF2K (human) = EEF2K (human) (UniProt O00418)
EPHA2 (human) = EPHA2 (human) (UniProt P29317)
EPHB3 (human) = EPHB3 (human) (UniProt P54753)
GSK3B (human) = GSK3B (human) (UniProt P49841)
INSR (human) = INSR (human) (UniProt P06213)
MAPK12 (human) = MAPK12 (human) (UniProt P53778)
MAPK9 (human) = MAPK9 (human) (UniProt P45984)
MAPKAPK2 (human) = MAPKAPK2 (human) (UniProt P49137)
MELK (human) = MELK (human) (UniProt Q14680)
MST4 (human) = MST4 (human) (UniProt Q9P289)
PAK4 (human) = PAK4 (human) (UniProt O96013)
PAK6 (human) = PAK6 (human) (UniProt Q9NQU5)
PIM1 (human) = PIM1 (human) (UniProt P11309)
PKN2 (human) = PKN2 (human) (UniProt Q16513)
PRKCA (human) = PRKCA (human) (UniProt P17252)
PRKCZ (human) = PRKCZ (human) (UniProt Q05513)
PRKCZ (human), sequence (Q05513 whole entry, looked up): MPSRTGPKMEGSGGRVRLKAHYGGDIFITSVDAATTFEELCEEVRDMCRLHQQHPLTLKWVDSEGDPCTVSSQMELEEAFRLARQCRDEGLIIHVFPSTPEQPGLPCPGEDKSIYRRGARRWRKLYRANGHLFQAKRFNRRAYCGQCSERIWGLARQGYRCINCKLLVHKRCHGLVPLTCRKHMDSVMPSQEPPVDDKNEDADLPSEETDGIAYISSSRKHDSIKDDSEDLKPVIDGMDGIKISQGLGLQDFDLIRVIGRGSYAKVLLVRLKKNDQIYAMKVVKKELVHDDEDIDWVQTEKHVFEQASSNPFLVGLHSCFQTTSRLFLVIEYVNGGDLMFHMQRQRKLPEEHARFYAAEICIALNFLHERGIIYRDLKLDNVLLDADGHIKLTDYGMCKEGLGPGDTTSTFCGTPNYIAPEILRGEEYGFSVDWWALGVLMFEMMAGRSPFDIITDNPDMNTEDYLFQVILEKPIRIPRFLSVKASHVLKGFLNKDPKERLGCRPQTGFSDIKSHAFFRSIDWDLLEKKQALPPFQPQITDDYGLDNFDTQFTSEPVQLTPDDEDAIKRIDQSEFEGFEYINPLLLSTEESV

MAPK12 (human), sequence (P53778 whole entry, looked up): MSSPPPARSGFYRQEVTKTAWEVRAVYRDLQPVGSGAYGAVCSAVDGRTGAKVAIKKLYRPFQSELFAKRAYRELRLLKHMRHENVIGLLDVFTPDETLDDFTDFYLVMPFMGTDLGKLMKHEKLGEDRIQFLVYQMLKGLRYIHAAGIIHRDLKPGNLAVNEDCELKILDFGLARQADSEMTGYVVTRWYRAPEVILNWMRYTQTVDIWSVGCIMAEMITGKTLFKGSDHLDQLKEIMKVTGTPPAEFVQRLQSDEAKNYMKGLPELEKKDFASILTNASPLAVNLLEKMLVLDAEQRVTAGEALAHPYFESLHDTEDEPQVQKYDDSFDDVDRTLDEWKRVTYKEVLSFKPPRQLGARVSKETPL
AKT1 (human), P31749 [S473D], sequence (P31749 whole entry S473D, looked up): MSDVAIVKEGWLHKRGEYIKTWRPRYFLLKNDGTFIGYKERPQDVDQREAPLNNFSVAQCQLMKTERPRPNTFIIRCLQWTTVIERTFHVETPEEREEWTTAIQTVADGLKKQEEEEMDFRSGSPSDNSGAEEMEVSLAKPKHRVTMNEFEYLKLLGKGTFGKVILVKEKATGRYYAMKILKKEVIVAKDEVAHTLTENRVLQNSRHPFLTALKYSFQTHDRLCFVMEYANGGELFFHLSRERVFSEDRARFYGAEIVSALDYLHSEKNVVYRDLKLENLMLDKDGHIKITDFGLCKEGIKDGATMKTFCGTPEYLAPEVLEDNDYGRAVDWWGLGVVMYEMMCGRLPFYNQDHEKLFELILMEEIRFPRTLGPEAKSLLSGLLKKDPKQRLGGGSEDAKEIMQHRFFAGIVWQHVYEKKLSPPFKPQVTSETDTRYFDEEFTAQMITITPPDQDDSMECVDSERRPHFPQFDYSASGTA
PKN2 (human), sequence (Q16513 whole entry, looked up): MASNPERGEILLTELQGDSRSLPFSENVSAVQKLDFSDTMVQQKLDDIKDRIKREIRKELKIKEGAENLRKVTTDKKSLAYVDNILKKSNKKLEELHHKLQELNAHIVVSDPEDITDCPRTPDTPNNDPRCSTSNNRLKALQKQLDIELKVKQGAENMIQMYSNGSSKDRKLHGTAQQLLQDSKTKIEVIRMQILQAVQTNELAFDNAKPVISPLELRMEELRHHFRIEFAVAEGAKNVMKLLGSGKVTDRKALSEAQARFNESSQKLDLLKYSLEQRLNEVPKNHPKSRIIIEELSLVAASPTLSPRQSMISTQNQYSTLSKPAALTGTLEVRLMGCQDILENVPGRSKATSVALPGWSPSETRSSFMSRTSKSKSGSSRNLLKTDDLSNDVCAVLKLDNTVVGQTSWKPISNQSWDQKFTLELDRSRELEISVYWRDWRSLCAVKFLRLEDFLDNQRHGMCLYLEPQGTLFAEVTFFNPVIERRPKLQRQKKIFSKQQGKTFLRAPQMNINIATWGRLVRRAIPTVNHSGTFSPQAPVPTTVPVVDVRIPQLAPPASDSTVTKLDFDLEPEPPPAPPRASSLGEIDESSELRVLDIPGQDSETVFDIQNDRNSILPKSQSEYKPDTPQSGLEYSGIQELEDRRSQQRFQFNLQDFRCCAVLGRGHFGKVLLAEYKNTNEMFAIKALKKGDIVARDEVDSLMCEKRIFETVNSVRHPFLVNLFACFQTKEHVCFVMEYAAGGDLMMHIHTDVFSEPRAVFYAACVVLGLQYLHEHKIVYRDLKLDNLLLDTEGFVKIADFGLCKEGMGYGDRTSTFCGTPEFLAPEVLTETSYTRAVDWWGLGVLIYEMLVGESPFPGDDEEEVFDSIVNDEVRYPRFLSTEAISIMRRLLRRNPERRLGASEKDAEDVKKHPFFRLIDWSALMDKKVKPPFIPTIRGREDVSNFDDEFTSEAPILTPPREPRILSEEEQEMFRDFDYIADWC
MELK (human), sequence (Q14680 whole entry, looked up): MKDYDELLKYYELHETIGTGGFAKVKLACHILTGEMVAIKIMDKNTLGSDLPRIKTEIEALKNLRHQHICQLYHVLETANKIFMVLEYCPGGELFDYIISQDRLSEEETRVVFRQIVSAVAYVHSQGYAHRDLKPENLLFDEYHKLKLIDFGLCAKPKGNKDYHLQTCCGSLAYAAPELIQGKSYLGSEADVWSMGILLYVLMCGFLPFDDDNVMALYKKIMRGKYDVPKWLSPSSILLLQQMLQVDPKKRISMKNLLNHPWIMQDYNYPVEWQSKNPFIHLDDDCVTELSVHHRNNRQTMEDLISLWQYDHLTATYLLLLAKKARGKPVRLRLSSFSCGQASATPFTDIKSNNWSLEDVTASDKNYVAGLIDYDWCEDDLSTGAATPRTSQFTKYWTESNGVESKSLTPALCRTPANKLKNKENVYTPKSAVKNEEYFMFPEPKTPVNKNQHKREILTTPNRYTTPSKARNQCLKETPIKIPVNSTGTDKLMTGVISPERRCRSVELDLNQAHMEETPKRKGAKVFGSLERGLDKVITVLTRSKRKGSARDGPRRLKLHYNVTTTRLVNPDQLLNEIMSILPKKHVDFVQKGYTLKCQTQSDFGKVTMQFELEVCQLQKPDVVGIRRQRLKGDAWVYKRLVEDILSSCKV
EPHB3 (human), sequence (P54753 whole entry, looked up): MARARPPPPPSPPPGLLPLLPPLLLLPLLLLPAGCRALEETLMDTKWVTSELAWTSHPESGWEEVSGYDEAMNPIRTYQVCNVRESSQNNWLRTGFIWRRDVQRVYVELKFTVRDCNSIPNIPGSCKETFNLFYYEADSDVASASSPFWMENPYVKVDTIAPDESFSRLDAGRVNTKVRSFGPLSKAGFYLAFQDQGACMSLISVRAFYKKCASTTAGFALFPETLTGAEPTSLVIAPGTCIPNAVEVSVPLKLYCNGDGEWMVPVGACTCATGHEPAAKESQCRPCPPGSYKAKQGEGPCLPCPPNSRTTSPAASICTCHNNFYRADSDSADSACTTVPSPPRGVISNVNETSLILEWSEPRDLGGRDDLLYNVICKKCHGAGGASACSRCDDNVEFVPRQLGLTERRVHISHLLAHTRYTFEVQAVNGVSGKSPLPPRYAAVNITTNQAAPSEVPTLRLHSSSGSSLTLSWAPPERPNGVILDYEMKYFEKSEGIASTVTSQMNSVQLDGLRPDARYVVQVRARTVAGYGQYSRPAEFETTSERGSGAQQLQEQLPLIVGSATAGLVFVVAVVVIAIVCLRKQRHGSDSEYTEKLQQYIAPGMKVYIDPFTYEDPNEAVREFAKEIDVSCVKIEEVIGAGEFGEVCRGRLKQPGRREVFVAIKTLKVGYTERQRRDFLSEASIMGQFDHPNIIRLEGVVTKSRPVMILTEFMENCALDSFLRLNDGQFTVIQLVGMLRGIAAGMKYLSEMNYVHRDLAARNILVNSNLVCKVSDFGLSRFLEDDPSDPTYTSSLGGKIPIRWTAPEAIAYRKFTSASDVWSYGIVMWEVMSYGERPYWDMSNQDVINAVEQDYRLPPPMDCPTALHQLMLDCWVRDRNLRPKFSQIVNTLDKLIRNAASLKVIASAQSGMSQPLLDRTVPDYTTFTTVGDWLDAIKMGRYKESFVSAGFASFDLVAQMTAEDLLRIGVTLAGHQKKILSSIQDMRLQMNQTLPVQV
PAK6 (human), sequence (Q9NQU5 whole entry, looked up): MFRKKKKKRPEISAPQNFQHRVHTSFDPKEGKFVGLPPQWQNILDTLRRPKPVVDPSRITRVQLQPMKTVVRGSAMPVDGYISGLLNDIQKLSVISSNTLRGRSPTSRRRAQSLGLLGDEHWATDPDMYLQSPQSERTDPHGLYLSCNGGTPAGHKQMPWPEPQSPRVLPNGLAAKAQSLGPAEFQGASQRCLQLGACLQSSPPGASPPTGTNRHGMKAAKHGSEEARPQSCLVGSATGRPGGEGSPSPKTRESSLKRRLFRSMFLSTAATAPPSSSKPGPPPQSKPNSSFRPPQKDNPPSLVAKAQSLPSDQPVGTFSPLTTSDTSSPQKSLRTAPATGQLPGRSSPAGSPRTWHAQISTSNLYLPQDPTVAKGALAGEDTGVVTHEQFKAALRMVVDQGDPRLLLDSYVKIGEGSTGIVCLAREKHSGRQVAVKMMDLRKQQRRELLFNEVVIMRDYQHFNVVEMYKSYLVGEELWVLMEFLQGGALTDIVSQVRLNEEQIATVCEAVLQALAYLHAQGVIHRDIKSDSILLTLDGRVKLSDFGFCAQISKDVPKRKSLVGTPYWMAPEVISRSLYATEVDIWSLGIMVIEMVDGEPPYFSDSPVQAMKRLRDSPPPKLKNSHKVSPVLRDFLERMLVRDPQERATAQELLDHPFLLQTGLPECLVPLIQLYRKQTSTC

`CCc1cncnc1N1CCN(Cc2nc3cc(C(F)(F)F)ccc3[nH]2)CC1` showed a residual activity ([1]; compound 0.1 µM) of 87%, a residual activity ([1]; compound 1.0 µM) of 69% and a residual activity ([1]; compound 10.0 µM) of 52%. For the same molecule, the residual activity (DYRK2 (human); compound 0.1 µM) was 97%, the residual activity (DYRK2 (human); compound 1.0 µM) was 104% and the residual activity (DYRK2 (human); compound 10.0 µM) was 101%. The residual activity (EEF2K (human); compound 0.1 µM) was 90%, the residual activity (EEF2K (human); compound 1.0 µM) was 73% and the residual activity (EEF2K (human); compound 10.0 µM) was 78%. The residual activity (EPHA2 (human); compound 0.1 µM) was 95%, the residual activity (EPHA2 (human); compound 1.0 µM) was 86% and the residual activity (EPHA2 (human); compound 10.0 µM) was 89%. The residual activity (EPHB3 (human); compound 0.1 µM) was 132%, the residual activity (EPHB3 (human); compound 1.0 µM) was 139% and the residual activity (EPHB3 (human); compound 10.0 µM) was 101%. The residual activity (GSK3B (human); compound 0.1 µM) was 87%, the residual activity (GSK3B (human); compound 1.0 µM) was 96% and the residual activity (GSK3B (human); compound 10.0 µM) was 92%. For the same molecule, the residual activity (INSR (human); compound 0.1 µM) was 108%, the residual activity (INSR (human); compound 1.0 µM) was 95% and the residual activity (INSR (human); compound 10.0 µM) was 96%. For the same molecule, the residual activity (MAPK12 (human); compound 0.1 µM) was 107%, the residual activity (MAPK12 (human); compound 1.0 µM) was 102% and the residual activity (MAPK12 (human); compound 10.0 µM) was 103%. It also gave a residual activity (MAPK9 (human); compound 0.1 µM) of 92%, a residual activity (MAPK9 (human); compound 1.0 µM) of 93% and a residual activity (MAPK9 (human); compound 10.0 µM) of 98%. It also gave a residual activity (MAPKAPK2 (human); compound 1.0 µM) of 105%, a residual activity (MAPKAPK2 (human); compound 10.0 µM) of 78% and a residual activity (MELK (human); compound 0.1 µM) of 94%. The residual activity (MELK (human); compound 1.0 µM) was 101%, the residual activity (MELK (human); compound 10.0 µM) was 87% and the residual activity (MST4 (human); compound 0.1 µM) was 87%. It also gave a residual activity (MST4 (human); compound 1.0 µM) of 77%, a residual activity (MST4 (human); compound 10.0 µM) of 46% and a residual activity (PAK4 (human); compound 0.1 µM) of 93%. For the same molecule, the residual activity (PAK4 (human); compound 1.0 µM) was 88%, the residual activity (PAK4 (human); compound 10.0 µM) was 88% and the residual activity (PAK6 (human); compound 0.1 µM) was 99%. For the same molecule, the residual activity (PAK6 (human); compound 1.0 µM) was 83%, the residual activity (PAK6 (human); compound 10.0 µM) was 86% and the residual activity (PIM1 (human); compound 0.1 µM) was 88%. The residual activity (PIM1 (human); compound 1.0 µM) was 90%, the residual activity (PIM1 (human); compound 10.0 µM) was 78% and the residual activity (PKN2 (human); compound 0.1 µM) was 95%. It also gave a residual activity (PKN2 (human); compound 1.0 µM) of 86%, a residual activity (PKN2 (human); compound 10.0 µM) of 84% and a residual activity (PRKCA (human); compound 0.1 µM) of 119%. It also gave a residual activity (PRKCA (human); compound 1.0 µM) of 106%, a residual activity (PRKCA (human); compound 10.0 µM) of 62% and a residual activity (PRKCZ (human); compound 0.1 µM) of 78%. For the same molecule, the residual activity (PRKCZ (human); compound 1.0 µM) was 75% and the residual activity (PRKCZ (human); compound 10.0 µM) was 70%.
In the case of `O=C1NC(=S)N[C@@H]1Cc1c[nH]c2ccccc12`, the residual activity ([1]; compound 1.0 µM) is reported as 87%, the residual activity ([1]; compound 10.0 µM) is reported as 90% and the residual activity (DYRK2 (human); compound 1.0 µM) is reported as 82%. For the same molecule, the residual activity (DYRK2 (human); compound 10.0 µM) was 98%, the residual activity (EEF2K (human); compound 1.0 µM) was 75% and the residual activity (EEF2K (human); compound 10.0 µM) was 85%. The residual activity (EPHA2 (human); compound 1.0 µM) was 94%, the residual activity (EPHA2 (human); compound 10.0 µM) was 86% and the residual activity (EPHB3 (human); compound 1.0 µM) was 81%. It also gave a residual activity (GSK3B (human); compound 1.0 µM) of 99%, a residual activity (GSK3B (human); compound 10.0 µM) of 92% and a residual activity (INSR (human); compound 1.0 µM) of 96%. For the same molecule, the residual activity (INSR (human); compound 10.0 µM) was 103%, the residual activity (MAPK12 (human); compound 1.0 µM) was 103% and the residual activity (MAPK12 (human); compound 10.0 µM) was 96%. The residual activity (MAPK9 (human); compound 1.0 µM) was 91%, the residual activity (MAPK9 (human); compound 10.0 µM) was 95% and the residual activity (MAPKAPK2 (human); compound 1.0 µM) was 72%. For the same molecule, the residual activity (MAPKAPK2 (human); compound 10.0 µM) was 96%, the residual activity (MELK (human); compound 1.0 µM) was 84% and the residual activity (MELK (human); compound 10.0 µM) was 100%. It also gave a residual activity (MST4 (human); compound 1.0 µM) of 126%, a residual activity (MST4 (human); compound 10.0 µM) of 108% and a residual activity (PAK4 (human); compound 1.0 µM) of 103%. It also gave a residual activity (PAK4 (human); compound 10.0 µM) of 106%, a residual activity (PAK6 (human); compound 1.0 µM) of 87% and a residual activity (PAK6 (human); compound 10.0 µM) of 98%. For the same molecule, the residual activity (PIM1 (human); compound 1.0 µM) was 89%, the residual activity (PIM1 (human); compound 10.0 µM) was 93% and the residual activity (PKN2 (human); compound 1.0 µM) was 87%. For the same molecule, the residual activity (PKN2 (human); compound 10.0 µM) was 82%, the residual activity (PRKCA (human); compound 1.0 µM) was 97% and the residual activity (PRKCA (human); compound 10.0 µM) was 104%. It also gave a residual activity (PRKCZ (human); compound 1.0 µM) of 77% and a residual activity (PRKCZ (human); compound 10.0 µM) of 83%.
